Our source for the IC50 values is US8420820B2, “Pyrrolopyridinylpyrimidin-2-ylamine derivatives” (Merck Patent GmbH, priority 2008, dated 2013).

pIC50: −log10 of the molar value.

One assay addresses T1, PDK1 (Homo sapiens, UniProt O15530).
T1 construct: His6 (N)
Put plainly: Test for the inhibition of PDK1 (flashplate, 33P-ATP). The assay is classed as biochemical. Conditions: His6-PDK1 3.4 nM, 4 μM ATP, 30° C., 60 min. As to the method:
The experimental batches are carried out in a flashplate system with 384 wells/microtitration plate.
In each case, the PDK1 sample His6-PDK1(SEQ ID NO: 2)(1-50)(3.4 nM), the PDK1 substrate biotin-bA-bA-[…] (SEQ ID NO: 3) (400 nM), 4 μM ATP (with 0.2 μCi of ^33P-ATP/well) and the test substance in 50 μl of conventional experimental solution per well are incubated at 30° C. for 60 min. The test substances are employed in corresponding concentrations (if desired in a dilution series). The control is carried out without test substance. The reaction is stopped using standard methods and washed. The activity of the kinase is measured via the incorporated radioactivity in top count. In order to determine the non-specific kinase reaction (blank value), the experimental batches are carried out in the presence of 100 nM staurosporin.
The radioactivity (decompositions per minute) of the blank value (no use of test substance in the presence of staurosporin) is subtracted from all other radioactivity values. The controls (kinase activity without test substance) are set equal to 100 percent and all other radioactivity values (after subtracting the blank value) are expressed set in relation thereto (for example in % of the control).
IC50 values (50% inhibition) are determined with the aid of statistics programmes, such as, for example, RS1.

Assay [1] relates to PDK1 kinase activity in PC3 cells (phospho-T308-PKB). Put plainly: Cellular testing of PDK1 kinase inhibitors in PC3 cells (Luminex, phospho-T308-PKB). The conditions noted are these: Homo sapiens, PC-3, 0.5 h, 30 min with test substance, serum-free, phospho-T308-PKB by Luminex, read-out: IC50 [PC3 P-PKB Thr308]. The assay is classed as cell-based. The protocol:
Method for the Cellular Testing of PDK1 Kinase Inhibitors in PC3 Cells.
The cellular assay for the determination of the PDK1 kinase activity is carried out as a Luminex assay in the 96-well format. PC3 cells are sown at 20,000 cells per well in 100 μl of medium (45% of […]/45% of Ham's F12/10% of FCS) and incubated on the following day for 30 min with a serial dilution of the test substance (7 concentrations) under serum-free conditions. The cells are subsequently lysed using 90 μl of lysis buffer (20 mM tris/HCl pH 8.0, 150 mM NaCl, 1% of NP40, 10% of glycerol, 1% of phosphatase inhibitor I, 1% of phosphatase inhibitor II, 0.1% of protease inhibitor cocktail III, 0.01% of benzonase) per well, and the lysates are separated off from insoluble cell constituents by means of centrifugation through a 96-well filter plate (0.65 μm). The lysates are incubated overnight at 4° C. with shaking with Luminex beads to which an anti-total PKB antibody is coupled. The detection is carried out on the following day by addition of a phospho-T308-PKB antibody and a species-specific […] secondary antibody. The detection of phospho-T308-PKB is carried out by measurement in a Luminex100 instrument by determination of 100 events per cavity in a measurement time of 60 sec. As pharmacological blank, the signals obtained from cells which have been treated with 10 μM staurosporin are subtracted from all other batches. The control value used for maximum phosphorylation of PKB on T308 are the signals from cells which have only been treated with the solvent (0.3% of DMSO). The values of the batches treated with test substance are calculated therefrom as percentage of control, and IC50 values are determined by means of RS1.

T1 sequence (O15530 51-556): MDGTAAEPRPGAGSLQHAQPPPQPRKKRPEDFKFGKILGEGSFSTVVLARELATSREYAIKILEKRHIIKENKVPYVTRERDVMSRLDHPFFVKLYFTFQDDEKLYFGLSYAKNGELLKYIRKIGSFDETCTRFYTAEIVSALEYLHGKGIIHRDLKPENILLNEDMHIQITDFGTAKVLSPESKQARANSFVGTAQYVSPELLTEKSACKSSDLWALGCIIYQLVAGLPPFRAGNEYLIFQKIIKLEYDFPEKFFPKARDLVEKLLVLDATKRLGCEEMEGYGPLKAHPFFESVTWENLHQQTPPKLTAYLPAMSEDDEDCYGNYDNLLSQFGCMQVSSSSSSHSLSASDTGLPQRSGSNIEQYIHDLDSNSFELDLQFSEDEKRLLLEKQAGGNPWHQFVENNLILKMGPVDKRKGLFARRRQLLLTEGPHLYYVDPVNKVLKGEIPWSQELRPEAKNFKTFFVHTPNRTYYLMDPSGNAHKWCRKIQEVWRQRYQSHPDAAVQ

One may read the pIC50 as the IC50 on a negative log10 scale, so that one unit is a factor of ten. Turning to `CCc1cc(-c2c[nH]c3ncc(-c4ccc(CN)cc4)cc23)nc(N)n1` [Compound A81, 4-[5-(4-Aminomethylphenyl)-1H-pyrrolo[2,3-b]pyridin-3-yl]-6-ethylpyrimidin-2-ylamine], the negative logarithm of the IC50 (pIC50) is 6.00 to 8.00 at PDK1 and 5.00 to 6.00 in assay [1].

`CCCCc1cc(-c2c[nH]c3ncc(-c4cnn(CCN(C)C)c4)cc23)nc(N)n1` [Compound A85, 4-Butyl-6-{5-[1-(2-dimethylaminoethyl)-1H-pyrazol-4-yl]-1H-pyrrolo[2,3-b]-pyridin-3-yl}pyrimidin-2-ylamine]: the pIC50 at PDK1 is 6.00 to 8.00; in assay [1] it was 5.00 to 6.00.

As to `CCCCc1cc(-c2c[nH]c3ncc(-c4cnn(C5CCN(C(C)=O)CC5)c4)cc23)nc(N)n1` [Compound A86, 1-(4-{4-[3-(2-Amino-6-butylpyrimidin-4-yl)-1H-pyrrolo[2,3-b]pyridin-5-yl]-pyrazol-1-yl}piperidin-1-yl)ethanone], the pIC50 at PDK1 is 6.00 to 8.00; in assay [1], 5.00 to 6.00.

With `CCCCc1cc(-c2c[nH]c3ncc(-c4cnn(C5CCNCC5)c4)cc23)nc(N)n1` [Compound A87, 4-Butyl-6-[5-(1-piperidin-4-yl-1H-pyrazol-4-yl)-1H-pyrrolo[2,3-b]pyridin-3-yl]-pyrimidin-2-ylamine], the results for the pIC50 (against PDK1; in assay [1]) were 6.00 to 8.00 and 5.00 to 6.00, respectively.

In the case of `CCCCc1cc(-c2c[nH]c3ncc(-c4cnn(CCO)c4)cc23)nc(N)n1` [Compound A88, 2-{4-[3-(2-Amino-6-butylpyrimidin-4-yl)-1H-pyrrolo[2,3-b]pyridin-5-yl]pyrazol-1-yl}ethanol], the negative logarithm of the IC50 (pIC50) on PDK1 is 6.00 to 8.00; in assay [1], 5.00 to 6.00.

For `CCCCc1cc(-c2c[nH]c3ncc(-c4cnn(C5CCN(C)CC5)c4)cc23)nc(N)n1` [Compound A89, 4-Butyl-6-{5-[1-(1-methylpiperidin-4-yl)-1H-pyrazol-4-yl]-1H-pyrrolo[2,3-b]-pyridin-3-yl}pyrimidin-2-ylamine], the pIC50 against PDK1 is 6.00 to 8.00; in assay [1] it was 5.00 to 6.00.

In the case of `CC(=O)NCCCc1cc(-c2c[nH]c3ncc(-c4cnn(C(C)C)c4)cc23)nc(N)n1` [Compound A97, N-(3-{2-Amino-6-[5-(1-isopropyl-1H-pyrazol-4-yl)-1H-pyrrolo[2,3-b]pyridin-3-yl]pyrimidin-4-yl}propyl)acetamide], the figures for the pIC50 (on PDK1; in assay [1]) were 6.00 to 8.00 and 4.70 to 5.00, respectively.

With `CCc1cc(-c2c[nH]c3ncc(-c4cnn(Cc5cccc(F)c5)c4)cc23)nc(N)n1` [Compound A98, 4-Ethyl-6-{5-[1-(3-fluorobenzyl)-1H-pyrazol-4-yl]-1H-pyrrolo[2,3-b]pyridin-3-yl}pyrimidin-2-ylamine], the negative-log IC50 (pIC50) was 6.00 to 8.00 on PDK1 and 5.00 to 6.00 in assay [1].

As to `CCc1cc(-c2c[nH]c3ncc(-c4cnn(Cc5ccc(F)c(F)c5)c4)cc23)nc(N)n1` [Compound A99, 4-{5-[1-(3,4-Difluorobenzyl)-1H-pyrazol-4-yl]-1H-pyrrolo[2,3-b]pyridin-3-yl}-6-ethylpyrimidin-2-ylamine], the pIC50 against PDK1 was 6.00 to 8.00; in assay [1], 4.70 to 5.00.

For the molecule `CC(C)n1cc(-c2cnc3[nH]cc(-c4cc(CCC(=O)N(C)C)nc(N)n4)c3c2)cn1` [Compound A101, 3-{2-Amino-6-[5-(1-isopropyl-1H-pyrazol-4-yl)-1H-pyrrolo[2,3-b]pyridin-3-yl]-pyrimidin-4-yl}-N,N-dimethylpropionamide], the results for the negative-log IC50 (pIC50) (against PDK1; in assay [1]) were 6.00 to 8.00 and 4.70 to 5.00, respectively.

For `CCC(O)c1cc(-c2c[nH]c3ncc(-c4cnn(C(C)C)c4)cc23)nc(N)n1` (centres unmarked) [Compound A103, 1-{2-Amino-6-[5-(1-isopropyl-1H-pyrazol-4-yl)-1H-pyrrolo[2,3-b]pyridin-3-yl]-pyrimidin-4-yl}propan-1-ol], the pIC50 against PDK1 is 6.00 to 8.00; in assay [1] it was 4.70 to 5.00.

On to `CC(C)CC(O)c1cc(-c2c[nH]c3ncc(-c4cnn(C(C)C)c4)cc23)nc(N)n1` (centres unmarked) [Compound A104, 1-{2-Amino-6-[5-(1-isopropyl-1H-pyrazol-4-yl)-1H-pyrrolo[2,3-b]pyridin-3-yl]-pyrimidin-4-yl}-3-methylbutan-1-ol], for which the pIC50 against PDK1 was 6.00 to 8.00; in assay [1], 5.00 to 6.00.

For the molecule `Nc1nc(-c2c[nH]c3ncccc23)cc(C2CCCCC2)n1` [Compound A105, 4-Cyclohexyl-6-(1H-pyrrolo[2,3-b]pyridin-3-yl)pyrimidin-2-ylamine], the results for the pIC50 (at PDK1; in assay [1]) were 6.00 to 8.00 and 4.70 to 5.00, respectively.

For the molecule `CC(C)n1cc(-c2cnc3[nH]cc(-c4cc(CCCn5ccnc5)nc(N)n4)c3c2)cn1` [Compound A108, 4-(3-Imidazol-1-ylpropyl)-6-[5-(1-isopropyl-1H-pyrazol-4-yl)-1H-pyrrolo-[2,3-b]pyridin-3-yl]pyrimidin-2-ylamine], the results for the pIC50 (on PDK1; in assay [1]) were 6.00 to 8.00 and 4.70 to 5.00, respectively.

As to `CC(C)n1cc(-c2cnc3[nH]cc(-c4cc(CCn5ccnc5)nc(N)n4)c3c2)cn1` [Compound A110, 4-(2-Imidazol-1-ylethyl)-6-[5-(1-isopropyl-1H-pyrazol-4-yl)-1H-pyrrolo[2,3-b]-pyridin-3-yl]pyrimidin-2-ylamine], the negative-log IC50 (pIC50) against PDK1 is 6.00 to 8.00; in assay [1] it was 4.70 to 5.00.

In the case of `CC(C)n1cc(-c2cnc3[nH]cc(-c4cc(C5CCCCC5)nc(N)n4)c3c2)cn1` [Compound A111, 4-Cyclohexyl-6-[5-(1-isopropyl-1H-pyrazol-4-yl)-1H-pyrrolo[2,3-b]pyridin-3-yl]pyrimidin-2-ylamine], the pIC50 on PDK1 is 6.00 to 8.00; in assay [1], 5.00 to 6.00.

Turning to `Nc1nc(-c2c[nH]c3ncccc23)cc(C2(O)CCN(C(=O)OCc3ccccc3)CC2)n1` [Compound A113, 4-[2-Amino-6-(1H-pyrrolo[2,3-b]pyridin-3-yl)pyrimidin-4-yl]-4-hydroxypiperidine-1-carboxylic acid benzyl ester], the negative-log IC50 (pIC50) (on PDK1; in assay [1]) was 5.00 to 6.00 each time.

Regarding `CC(C)N1CCC(O)(c2cc(-c3c[nH]c4ncc(-c5cnn(C(C)C)c5)cc34)nc(N)n2)CC1` [Compound A114, 4-{2-Amino-6-[5-(1-isopropyl-1H-pyrazol-4-yl)-1H-pyrrolo[2,3-b]pyridin-3-yl]-pyrimidin-4-yl}-1-isopropylpiperidin-4-ol], the pIC50 against PDK1 is 6.00 to 8.00; in assay [1], 4.70 to 5.00.

With `CC(C)n1cc(-c2cnc3[nH]cc(-c4cc(C(O)c5ccccc5)nc(N)n4)c3c2)cn1` (centres unmarked) [Compound A115, {2-Amino-6-[5-(1-isopropyl-1H-pyrazol-4-yl)-1H-pyrrolo[2,3-b]pyridin-3-yl]-pyrimidin-4-yl}phenylmethanol], the negative logarithm of the IC50 (pIC50) on PDK1 was 5.00 to 6.00; in assay [1] it was 4.70 to 5.00.

For `CC(C)n1cc(-c2cnc3[nH]cc(-c4cc(C5(O)CCN(CCc6ccc(F)cc6)CC5)nc(N)n4)c3c2)cn1` [Compound A116, 4-{2-Amino-6-[5-(1-isopropyl-1H-pyrazol-4-yl)-1H-pyrrolo[2,3-b]pyridin-3-yl]-pyrimidin-4-yl}-1-[2-(4-fluorophenyl)ethyl]piperidin-4-ol], the pIC50 was 6.00 to 8.00 against PDK1 and 4.70 to 5.00 in assay [1].

On to `CCc1cc(-c2c[nH]c3ncc(-c4cnn(C(C)C(=O)Nc5ccc6[nH]ccc6c5)c4)cc23)nc(N)n1` (centres unmarked) [Compound A121, 2-{4-[3-(2-Amino-6-ethylpyrimidin-4-yl)-1H-pyrrolo[2,3-b]pyridin-5-yl]pyrazol-1-yl}-N-(1H-indol-5-yl)propionamide], for which the negative logarithm of the IC50 (pIC50) is 6.00 to 8.00 on PDK1 and 5.00 to 6.00 in assay [1].

With `CC(C)n1cc(-c2cnc3[nH]cc(-c4cc(C5(O)CCN(C(=O)OCc6ccccc6)CC5)nc(N)n4)c3c2)cn1` [Compound A122, 4-{2-Amino-6-[5-(1-isopropyl-1H-pyrazol-4-yl)-1H-pyrrolo[2,3-b]pyridin-3-yl]-pyrimidin-4-yl}-4-hydroxypiperidine-1-carboxylic acid benzyl ester], the figures for the pIC50 (against PDK1; in assay [1]) were 6.00 to 8.00 and 4.70 to 5.00, respectively.
